# Data from PMC6895180 (Nature Communications, 2019).
# Where “and” joins values, the source holds several entries; their conditions need not be identical. Identical values can stand only once. Like-named read-outs stand apart in the source and are kept apart here. Marks after values point to notes of the source that are not given here.
# Assays:
# [1] = system: T. b. brucei Lister 427WT; experiment: Drug susceptibility test (resazurin), Lister 427WT; format: cell-based, Trypanosoma brucei brucei
# Summary of the method: (§1)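 Trypanosomes (2 × 10^4 cells/well) exposed 48 h at 37 °C/5% CO2 in HMI-9/FBS to 23-step doubling dilutions from 100 µM, then resazurin added for a further 24 h. Fluorescence fitted to a variable-slope sigmoid curve.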
# [2] = system: ISMR1: isometamidium-resistant T. brucei cell line; experiment: microbe, parasite or virus in culture; format: cell-based, Trypanosoma brucei brucei
# Summary of the method: as §1
# [3] = system: TbAT1-KO: T. brucei cell line lacking the TbAT1(P2) transporter gene; experiment: microbe, parasite or virus in culture; format: cell-based, Trypanosoma brucei brucei
# Summary of the method: as §1
# [4] = molecular target: P2 transporter (TbAT1) (Trypanosoma brucei brucei, UniProt Q9Y0I0); experiment: cell-based; conditions: for Ki: P2 transporter Ki
# Sequence of P2 transporter (TbAT1) (Q9Y0I0 entry or part of it): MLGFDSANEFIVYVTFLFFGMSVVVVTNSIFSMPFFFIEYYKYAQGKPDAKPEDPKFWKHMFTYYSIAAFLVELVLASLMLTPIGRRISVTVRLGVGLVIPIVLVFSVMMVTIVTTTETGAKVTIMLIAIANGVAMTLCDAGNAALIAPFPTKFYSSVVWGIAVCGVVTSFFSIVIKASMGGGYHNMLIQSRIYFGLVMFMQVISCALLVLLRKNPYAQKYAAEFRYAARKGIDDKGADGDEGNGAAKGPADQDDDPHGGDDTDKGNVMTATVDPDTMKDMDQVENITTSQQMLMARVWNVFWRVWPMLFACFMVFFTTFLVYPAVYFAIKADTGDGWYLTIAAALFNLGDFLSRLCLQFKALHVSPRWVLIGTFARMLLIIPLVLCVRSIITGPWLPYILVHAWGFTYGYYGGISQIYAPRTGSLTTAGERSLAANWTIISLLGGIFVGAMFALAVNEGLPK
# Method: Non-specific association of radiolabel with the cell pellet was determined using an identical incubation in the presence of saturating (1 mM) unlabelled adenosine.
# [5] = system: T. brucei BSF s427 wildtype cells; experiment: Growth assays of T. brucei (trypanocidal/trypanostatic effect); format: cell-based, Trypanosoma brucei
# Method: Growth assays of T. brucei
# To test the effect of the novel adenosine analogues on the growth of T. brucei BSF, s427 wildtype cells were seeded at 1×10^5 cells mL-1 in 5 mL of HMI-9 medium with 10% FBS and treated with compounds […]
# cells were also incubated in drug-free medium under the same conditions. 2 μM of 2’-deoxycoformycin were added to all cultures to avoid any potential effect of serum adenosine deaminase on the activity of test compounds and cordycepin.1
# Cells were manually counted in Neubauer chambers at 0, 2, 4, 6, 8, 12, 24, 36 and 48 h after addition of […]
# the drugs. […]
# After 6 and 12 h after addition of drugs, approximately 2×10^6 cells were harvested from each group and applied to glass slides pre-treated with poly-L-lysine, left to settle for 5 min and fixed with 4% formaldehyde for 4 min. The formaldehyde was neutralised by addition of 100 mM glycine (20 min).
# Cells were washed once with PBS and blocked for 1 h with 1% BSA/0.2% Tween-20 in PBS. Cells were […]
structure (smiles),measurement,setting,value
"Nc1ncnc2c1c(Br)cn2[C@@H]1O[C@H](CO)[C@@H](O)[C@H]1O [Compound 8, 7-bromotubercidin]",EC50,"[1]; Trypanosoma brucei, read-out: Lister 427 EC50, mean and SEM, n = 3",320 ± 270 nM
same,EC50,"[1]; Trypanosoma brucei, source data, read-out: s427 EC50, AVG",315 nM
same,EC50,"[1]; Trypanosoma brucei, source data, read-out: s427 EC50, single determinations",364 nM
same,EC50,"[1]; source data, read-out: s427 EC50, single determinations",309 nM and 273 nM
same,EC50,"[2]; Trypanosoma brucei, mean and SEM, n = 3, read-out: ISMR1 EC50",1530 ± 157 nM
same,EC50,"[2]; Trypanosoma brucei, source data, read-out: ISMR1 EC50, AVG",1530 nM
same,EC50,"[2]; Trypanosoma brucei, source data, read-out: ISMR1 EC50, single determinations",1390 nM
same,RF (ISMR1),[2]; resistance factor vs Lister 427WT,4.85**
same,EC50,"[2]; source data, read-out: ISMR1 EC50, single determinations",1100 nM and 2070 nM and 1520 nM
same,EC50,"[3]; Trypanosoma brucei, read-out: TbAT1-KO EC50, mean and SEM, n = 3",825 ± 17.3 nM
same,EC50,"[3]; Trypanosoma brucei, read-out: TbAT1-KO EC50, single determinations, source data",820 nM
same,EC50,"[3]; read-out: TbAT1-KO EC50, single determinations, source data",858 nM and 798 nM
same,RF (TbAT1-KO),[3]; resistance factor: ratio of EC50 of resistant and Lister 427WT,2.62***
same,P2 transporter ΔG^0,[4]; Gibbs free energy from −RT ln(Ki),-7.77 kcal/mol
same,IC50,"[4]; P2 transporter IC50, single experiments, [L] 0.033 or 0.1 per experiment",2520 nM and 3860 nM and 4390 nM
same,Ki,"[4]; AVG, source data",3020 nM
same,Ki,"[4]; single experiments, Cheng–Prusoff from IC50",2110 nM and 3240 nM and 3690 nM
same,P2 transporter δ(ΔG^0),[4]; in comparison to adenosine,0.789 kcal/mol
same,AVG of cells/mL,"[5]; 2xEC50, 2 h, experiment 1",142500 cells/mL
same,Cells/mL,"[5]; 2xEC50, 2 h, experiment 1",127500 Cells/mL and 157500 Cells/mL
same,Counts,"[5]; 2xEC50, 2 h, experiment 1",51 and 63
same,AVG of cells/mL,"[5]; 2xEC50, 2 h, experiment 2",155000 cells/mL
same,Cells/mL,"[5]; 2xEC50, 2 h, experiment 2",145000 Cells/mL and 165000 Cells/mL
same,Counts,"[5]; 2xEC50, 2 h, experiment 2",58 and 66
same,AVG of cells/mL,"[5]; 2xEC50, 4 h, experiment 1",146250 cells/mL
same,Cells/mL,"[5]; 2xEC50, 4 h, experiment 1",140000 Cells/mL and 152500 Cells/mL
same,Counts,"[5]; 2xEC50, 4 h, experiment 1",61 and 56
same,AVG of cells/mL,"[5]; 2xEC50, 4 h, experiment 2",162500 cells/mL
same,Cells/mL,"[5]; 2xEC50, 4 h, experiment 2",140000 Cells/mL and 185000 Cells/mL
same,Counts,"[5]; 2xEC50, 4 h, experiment 2",74 and 56
same,AVG of cells/mL,"[5]; 2xEC50, 6 h, experiment 1",147500 cells/mL
same,Cells/mL,"[5]; 2xEC50, 6 h, experiment 1",132500 Cells/mL and 162500 Cells/mL
same,Counts,"[5]; 2xEC50, 6 h, experiment 1",53 and 65
same,AVG of cells/mL,"[5]; 2xEC50, 6 h, experiment 2",175000 cells/mL
same,Cells/mL,"[5]; 2xEC50, 6 h, experiment 2",175000 Cells/mL
same,Counts,"[5]; 2xEC50, 6 h, experiment 2",70
same,AVG of cells/mL,"[5]; 2xEC50, 8 h, experiment 1",175000 cells/mL
same,Cells/mL,"[5]; 2xEC50, 8 h, experiment 1",185000 Cells/mL and 165000 Cells/mL
same,Counts,"[5]; 2xEC50, 8 h, experiment 1",74 and 66
same,AVG of cells/mL,"[5]; 2xEC50, 8 h, experiment 2",166250 cells/mL
same,Cells/mL,"[5]; 2xEC50, 8 h, experiment 2",180000 Cells/mL and 152500 Cells/mL
same,Counts,"[5]; 2xEC50, 8 h, experiment 2",72 and 61
same,AVG of cells/mL,"[5]; 2xEC50, 12 h, experiment 1",185000 cells/mL
same,Cells/mL,"[5]; 2xEC50, 12 h, experiment 1",185000 Cells/mL
same,Counts,"[5]; 2xEC50, 12 h, experiment 1",74
same,AVG of cells/mL,"[5]; 2xEC50, 12 h, experiment 2",181250 cells/mL
same,Cells/mL,"[5]; 2xEC50, 12 h, experiment 2",190000 Cells/mL and 172500 Cells/mL
same,Counts,"[5]; 2xEC50, 12 h, experiment 2",76 and 69
same,AVG of cells/mL,"[5]; 2xEC50, 24 h, experiment 1",211250 cells/mL
same,Cells/mL,"[5]; 2xEC50, 24 h, experiment 1",227500 Cells/mL and 195000 Cells/mL
same,Counts,"[5]; 2xEC50, 24 h, experiment 1",91 and 78
same,AVG of cells/mL,"[5]; 2xEC50, 24 h, experiment 2",167500 cells/mL
same,Cells/mL,"[5]; 2xEC50, 24 h, experiment 2",165000 Cells/mL and 170000 Cells/mL
same,Counts,"[5]; 2xEC50, 24 h, experiment 2",66 and 68
same,AVG of cells/mL,"[5]; 2xEC50, 36 h, experiment 1",350000 cells/mL
same,Cells/mL,"[5]; 2xEC50, 36 h, experiment 1",322500 Cells/mL and 377500 Cells/mL
same,Counts,"[5]; 2xEC50, 36 h, experiment 1",129 and 151
same,AVG of cells/mL,"[5]; 2xEC50, 36 h, experiment 2",212500 cells/mL
same,Cells/mL,"[5]; 2xEC50, 36 h, experiment 2",220000 Cells/mL and 205000 Cells/mL
same,Counts,"[5]; 2xEC50, 36 h, experiment 2",88 and 82
same,AVG of cells/mL,"[5]; 2xEC50, 48 h, experiment 1",365000 cells/mL
same,Cells/mL,"[5]; 2xEC50, 48 h, experiment 1",365000 Cells/mL
same,Counts,"[5]; 2xEC50, 48 h, experiment 1",146
same,AVG of cells/mL,"[5]; 2xEC50, 48 h, experiment 2",152500 cells/mL
same,Cells/mL,"[5]; 2xEC50, 48 h, experiment 2",142500 Cells/mL and 162500 Cells/mL
same,Counts,"[5]; 2xEC50, 48 h, experiment 2",57 and 65
same,effect on T. brucei bloodstream forms in culture (cidal/static),[5]; 2× and 5× EC50,trypanostatic
same,AVG of cells/mL,"[5]; 5xEC50, 2 h, experiment 1",118750 cells/mL
same,Cells/mL,"[5]; 5xEC50, 2 h, experiment 1",130000 Cells/mL and 107500 Cells/mL
same,Counts,"[5]; 5xEC50, 2 h, experiment 1",52 and 43
same,AVG of cells/mL,"[5]; 5xEC50, 2 h, experiment 2",130000 cells/mL
same,Cells/mL,"[5]; 5xEC50, 2 h, experiment 2",137500 Cells/mL and 122500 Cells/mL
same,Counts,"[5]; 5xEC50, 2 h, experiment 2",55 and 49
same,AVG of cells/mL,"[5]; 5xEC50, 4 h, experiment 1",138750 cells/mL
same,Cells/mL,"[5]; 5xEC50, 4 h, experiment 1",132500 Cells/mL and 145000 Cells/mL
same,Counts,"[5]; 5xEC50, 4 h, experiment 1",58 and 53
same,AVG of cells/mL,"[5]; 5xEC50, 4 h, experiment 2",130000 cells/mL
same,Cells/mL,"[5]; 5xEC50, 4 h, experiment 2",125000 Cells/mL and 135000 Cells/mL
same,Counts,"[5]; 5xEC50, 4 h, experiment 2",54 and 50
same,AVG of cells/mL,"[5]; 5xEC50, 6 h, experiment 1",186250 cells/mL
same,Cells/mL,"[5]; 5xEC50, 6 h, experiment 1",195000 Cells/mL and 177500 Cells/mL
same,Counts,"[5]; 5xEC50, 6 h, experiment 1",78 and 71
same,AVG of cells/mL,"[5]; 5xEC50, 6 h, experiment 2",162500 cells/mL
same,Cells/mL,"[5]; 5xEC50, 6 h, experiment 2",155000 Cells/mL and 170000 Cells/mL
same,Counts,"[5]; 5xEC50, 6 h, experiment 2",62 and 68
same,AVG of cells/mL,"[5]; 5xEC50, 8 h, experiment 1",160000 cells/mL
same,Cells/mL,"[5]; 5xEC50, 8 h, experiment 1",162500 Cells/mL and 157500 Cells/mL
same,Counts,"[5]; 5xEC50, 8 h, experiment 1",65 and 63
same,AVG of cells/mL,"[5]; 5xEC50, 8 h, experiment 2",125000 cells/mL
same,Cells/mL,"[5]; 5xEC50, 8 h, experiment 2",122500 Cells/mL and 127500 Cells/mL
same,Counts,"[5]; 5xEC50, 8 h, experiment 2",49 and 51
same,AVG of cells/mL,"[5]; 5xEC50, 12 h, experiment 1",176250 cells/mL
same,Cells/mL,"[5]; 5xEC50, 12 h, experiment 1",190000 Cells/mL and 162500 Cells/mL
same,Counts,"[5]; 5xEC50, 12 h, experiment 1",76 and 65
same,AVG of cells/mL,"[5]; 5xEC50, 12 h, experiment 2",166250 cells/mL
same,Cells/mL,"[5]; 5xEC50, 12 h, experiment 2",175000 Cells/mL and 157500 Cells/mL
same,Counts,"[5]; 5xEC50, 12 h, experiment 2",70 and 63
same,AVG of cells/mL,"[5]; 5xEC50, 24 h, experiment 1",146250 cells/mL
same,Cells/mL,"[5]; 5xEC50, 24 h, experiment 1",135000 Cells/mL and 157500 Cells/mL
same,Counts,"[5]; 5xEC50, 24 h, experiment 1",54 and 63
same,AVG of cells/mL,"[5]; 5xEC50, 24 h, experiment 2",126250 cells/mL
same,Cells/mL,"[5]; 5xEC50, 24 h, experiment 2",115000 Cells/mL and 137500 Cells/mL
same,Counts,"[5]; 5xEC50, 24 h, experiment 2",46 and 55
same,AVG of cells/mL,"[5]; 5xEC50, 36 h, experiment 1",146250 cells/mL
same,Cells/mL,"[5]; 5xEC50, 36 h, experiment 1",147500 Cells/mL and 145000 Cells/mL
same,Counts,"[5]; 5xEC50, 36 h, experiment 1",59 and 58
same,AVG of cells/mL,"[5]; 5xEC50, 36 h, experiment 2",138750 cells/mL
same,Cells/mL,"[5]; 5xEC50, 36 h, experiment 2",145000 Cells/mL and 132500 Cells/mL
same,Counts,"[5]; 5xEC50, 36 h, experiment 2",58 and 53
same,AVG of cells/mL,"[5]; 5xEC50, 48 h, experiment 1",112500 cells/mL
same,Cells/mL,"[5]; 5xEC50, 48 h, experiment 1",112500 Cells/mL
same,Counts,"[5]; 5xEC50, 48 h, experiment 1",45
same,AVG of cells/mL,"[5]; 5xEC50, 48 h, experiment 2",75000 cells/mL
same,Cells/mL,"[5]; 5xEC50, 48 h, experiment 2",65000 Cells/mL and 85000 Cells/mL
same,Counts,"[5]; 5xEC50, 48 h, experiment 2",26 and 34
